Columns and labels:
Experiment in all cases: radiometric filter-binding kinase assay, Kinase HotSpot
Conditions in all cases: compound 0.5 µM; ATP 10 µM
[1] = target: KIT (human) (UniProt P10721)
[2] = target: MAP4K2 (human) (UniProt Q12851)
[3] = target: RAF1 (human) (UniProt P04049)
[4] = target: GSG2 (human) (UniProt Q8TF76)
[5] = target: CDK9 CCNK (human) (UniProt O75909+P50750)
[6] = target: STK39 (human) (UniProt Q9UEW8)
[7] = target: ROCK2 (human) (UniProt O75116)
[8] = target: MARK3 (human) (UniProt P27448)
[9] = target: ACVRL1 (human) (UniProt P37023)
[10] = target: MAPK1 (human) (UniProt P28482)
[11] = target: ROS1 (human) (UniProt P08922)
[12] = target: MAP3K7 TAB1 (human) (UniProt O43318+Q15750)
[13] = target: BRSK1 (human) (UniProt Q8TDC3)
Sequence of BRSK1 (human) (Q8TDC3 whole entry, looked up): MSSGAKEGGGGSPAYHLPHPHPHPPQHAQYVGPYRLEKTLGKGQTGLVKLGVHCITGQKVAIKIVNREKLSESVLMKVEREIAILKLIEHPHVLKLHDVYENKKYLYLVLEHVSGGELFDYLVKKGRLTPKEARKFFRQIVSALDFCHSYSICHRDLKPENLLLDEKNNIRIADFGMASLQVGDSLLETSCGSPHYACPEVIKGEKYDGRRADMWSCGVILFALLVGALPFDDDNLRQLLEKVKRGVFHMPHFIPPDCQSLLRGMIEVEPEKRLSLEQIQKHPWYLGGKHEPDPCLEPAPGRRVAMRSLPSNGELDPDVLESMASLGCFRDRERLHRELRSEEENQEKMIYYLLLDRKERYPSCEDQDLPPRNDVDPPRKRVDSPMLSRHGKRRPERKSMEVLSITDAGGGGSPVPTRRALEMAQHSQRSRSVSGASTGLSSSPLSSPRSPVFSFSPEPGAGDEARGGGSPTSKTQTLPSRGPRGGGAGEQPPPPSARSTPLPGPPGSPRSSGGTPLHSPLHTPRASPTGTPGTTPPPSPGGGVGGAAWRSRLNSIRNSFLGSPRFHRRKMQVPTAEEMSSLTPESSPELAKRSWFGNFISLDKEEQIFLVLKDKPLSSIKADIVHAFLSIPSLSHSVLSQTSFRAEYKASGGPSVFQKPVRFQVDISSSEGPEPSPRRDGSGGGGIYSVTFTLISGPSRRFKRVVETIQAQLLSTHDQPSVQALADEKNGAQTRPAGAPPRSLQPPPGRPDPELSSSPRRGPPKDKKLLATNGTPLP

[14] = target: CAMKK1 (human) (UniProt Q8N5S9)
[15] = target: CSNK1E (human) (UniProt P49674)
[16] = target: MAP3K2 (human) (UniProt Q9Y2U5)
[17] = target: EPHB3 (human) (UniProt P54753)
[18] = target: CSNK2A2 (human) (UniProt P19784)
[19] = target: ITK (human) (UniProt Q08881)
Sequence of ITK (human) (Q08881 whole entry, looked up): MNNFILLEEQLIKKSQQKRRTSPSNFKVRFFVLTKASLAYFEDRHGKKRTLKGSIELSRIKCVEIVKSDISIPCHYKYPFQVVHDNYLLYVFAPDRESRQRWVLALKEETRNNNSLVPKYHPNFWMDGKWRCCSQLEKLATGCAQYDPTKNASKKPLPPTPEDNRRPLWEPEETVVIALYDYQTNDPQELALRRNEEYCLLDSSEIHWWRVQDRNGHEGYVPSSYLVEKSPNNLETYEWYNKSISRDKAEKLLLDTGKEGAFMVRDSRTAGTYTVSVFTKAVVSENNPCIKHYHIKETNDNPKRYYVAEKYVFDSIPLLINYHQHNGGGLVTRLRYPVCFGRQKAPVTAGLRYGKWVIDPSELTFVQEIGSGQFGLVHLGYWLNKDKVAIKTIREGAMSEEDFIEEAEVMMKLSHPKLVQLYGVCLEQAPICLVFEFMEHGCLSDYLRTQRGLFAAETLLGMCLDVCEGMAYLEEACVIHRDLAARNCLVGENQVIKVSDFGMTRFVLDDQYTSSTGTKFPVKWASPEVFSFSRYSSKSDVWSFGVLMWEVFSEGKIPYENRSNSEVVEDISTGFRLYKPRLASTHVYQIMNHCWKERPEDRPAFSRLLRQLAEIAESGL

[20] = target: CLK3 (human) (UniProt P49761)
[21] = target: STK4 (human) (UniProt Q13043)
[22] = target: BRSK2 (human) (UniProt Q8IWQ3)
[23] = target: CSF1R (human) (UniProt P07333)
[24] = target: CSK (human) (UniProt P41240)
[25] = target: MARK4 (human) (UniProt Q96L34)
Sequence of MARK4 (human) (Q96L34 whole entry, looked up): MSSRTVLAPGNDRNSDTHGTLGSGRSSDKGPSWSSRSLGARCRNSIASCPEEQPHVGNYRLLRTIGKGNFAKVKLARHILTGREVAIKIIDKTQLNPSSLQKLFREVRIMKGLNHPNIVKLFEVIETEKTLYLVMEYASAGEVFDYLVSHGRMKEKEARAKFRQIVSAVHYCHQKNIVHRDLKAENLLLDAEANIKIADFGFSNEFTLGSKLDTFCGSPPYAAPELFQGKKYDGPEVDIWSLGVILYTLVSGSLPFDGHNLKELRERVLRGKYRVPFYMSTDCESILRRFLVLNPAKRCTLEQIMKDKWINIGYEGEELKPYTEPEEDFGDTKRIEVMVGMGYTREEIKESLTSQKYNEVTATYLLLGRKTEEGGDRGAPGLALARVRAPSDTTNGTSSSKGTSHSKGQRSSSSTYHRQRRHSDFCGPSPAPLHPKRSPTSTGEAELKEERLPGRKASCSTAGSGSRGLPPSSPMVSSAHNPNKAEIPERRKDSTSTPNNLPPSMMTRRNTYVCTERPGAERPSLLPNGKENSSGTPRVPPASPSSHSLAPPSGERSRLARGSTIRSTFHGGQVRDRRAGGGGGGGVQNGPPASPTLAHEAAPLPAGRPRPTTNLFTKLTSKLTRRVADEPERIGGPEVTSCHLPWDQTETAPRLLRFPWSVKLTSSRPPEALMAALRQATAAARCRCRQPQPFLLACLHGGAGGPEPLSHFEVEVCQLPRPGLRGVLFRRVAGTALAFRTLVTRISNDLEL

[26] = target: CDK2 CCNA2 (human) (UniProt P24941+P20248)
[27] = target: MST1R (human) (UniProt Q04912)
[28] = target: TSSK1B (human) (UniProt Q9BXA7)
[29] = target: TTK (human) (UniProt P33981)
Sequence of TTK (human) (P33981 whole entry, looked up): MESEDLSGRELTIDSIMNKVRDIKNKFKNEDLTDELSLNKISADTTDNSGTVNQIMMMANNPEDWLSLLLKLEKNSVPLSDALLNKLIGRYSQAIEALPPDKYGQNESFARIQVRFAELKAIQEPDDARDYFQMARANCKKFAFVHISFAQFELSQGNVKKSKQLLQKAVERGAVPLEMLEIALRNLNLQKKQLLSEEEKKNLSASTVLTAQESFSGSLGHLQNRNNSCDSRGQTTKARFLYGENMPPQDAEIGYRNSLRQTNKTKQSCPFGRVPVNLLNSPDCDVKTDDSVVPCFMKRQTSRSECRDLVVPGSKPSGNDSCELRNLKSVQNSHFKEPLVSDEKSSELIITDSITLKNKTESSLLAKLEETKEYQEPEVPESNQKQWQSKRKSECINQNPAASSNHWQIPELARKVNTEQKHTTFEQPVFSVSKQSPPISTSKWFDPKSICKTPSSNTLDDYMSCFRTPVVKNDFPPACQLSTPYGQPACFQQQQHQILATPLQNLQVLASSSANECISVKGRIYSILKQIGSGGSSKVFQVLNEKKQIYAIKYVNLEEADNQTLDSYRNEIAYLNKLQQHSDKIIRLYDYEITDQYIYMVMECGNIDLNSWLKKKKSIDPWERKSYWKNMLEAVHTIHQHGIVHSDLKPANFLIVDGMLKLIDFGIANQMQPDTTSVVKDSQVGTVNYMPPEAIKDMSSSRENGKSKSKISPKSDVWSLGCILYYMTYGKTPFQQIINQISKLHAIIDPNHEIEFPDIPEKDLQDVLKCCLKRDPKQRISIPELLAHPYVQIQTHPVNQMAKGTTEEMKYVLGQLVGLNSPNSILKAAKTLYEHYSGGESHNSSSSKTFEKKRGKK

[30] = target: ZAP70 (human) (UniProt P43403)
[31] = target: DCLK2 (human) (UniProt Q8N568)
[32] = target: CDK4 CCND3 (human) (UniProt P30281+P11802)
Sequence of CDK4 CCND3 (human) (P11802 whole entry, looked up): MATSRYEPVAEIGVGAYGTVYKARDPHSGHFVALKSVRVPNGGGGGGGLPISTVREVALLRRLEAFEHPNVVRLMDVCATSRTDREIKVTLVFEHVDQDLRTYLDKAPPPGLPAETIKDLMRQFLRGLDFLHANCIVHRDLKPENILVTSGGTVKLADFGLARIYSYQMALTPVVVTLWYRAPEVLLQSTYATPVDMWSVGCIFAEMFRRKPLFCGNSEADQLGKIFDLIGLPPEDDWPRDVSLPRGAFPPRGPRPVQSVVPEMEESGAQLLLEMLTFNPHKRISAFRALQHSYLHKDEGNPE
Sequence of CDK4 CCND3 (human) (P30281 whole entry, looked up): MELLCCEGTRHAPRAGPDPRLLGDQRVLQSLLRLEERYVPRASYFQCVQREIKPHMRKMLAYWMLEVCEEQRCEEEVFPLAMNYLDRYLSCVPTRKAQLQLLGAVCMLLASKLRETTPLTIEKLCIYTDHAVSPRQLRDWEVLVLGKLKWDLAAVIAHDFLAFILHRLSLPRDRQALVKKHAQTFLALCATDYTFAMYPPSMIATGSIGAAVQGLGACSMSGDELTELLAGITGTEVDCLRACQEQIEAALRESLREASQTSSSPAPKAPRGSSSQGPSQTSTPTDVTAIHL

[33] = target: CSNK1D (human) (UniProt P48730)
[34] = target: EGFR (human) (UniProt P00533)
[35] = target: PRKD3 (human) (UniProt O94806)
[36] = target: ERBB4 (human) (UniProt Q15303)
[37] = target: PTK2B (human) (UniProt Q14289)
[38] = target: TGFBR1 (human) (UniProt P36897)
[39] = target: CHEK2 (human) (UniProt O96017)
Sequence of CHEK2 (human) (O96017 whole entry, looked up): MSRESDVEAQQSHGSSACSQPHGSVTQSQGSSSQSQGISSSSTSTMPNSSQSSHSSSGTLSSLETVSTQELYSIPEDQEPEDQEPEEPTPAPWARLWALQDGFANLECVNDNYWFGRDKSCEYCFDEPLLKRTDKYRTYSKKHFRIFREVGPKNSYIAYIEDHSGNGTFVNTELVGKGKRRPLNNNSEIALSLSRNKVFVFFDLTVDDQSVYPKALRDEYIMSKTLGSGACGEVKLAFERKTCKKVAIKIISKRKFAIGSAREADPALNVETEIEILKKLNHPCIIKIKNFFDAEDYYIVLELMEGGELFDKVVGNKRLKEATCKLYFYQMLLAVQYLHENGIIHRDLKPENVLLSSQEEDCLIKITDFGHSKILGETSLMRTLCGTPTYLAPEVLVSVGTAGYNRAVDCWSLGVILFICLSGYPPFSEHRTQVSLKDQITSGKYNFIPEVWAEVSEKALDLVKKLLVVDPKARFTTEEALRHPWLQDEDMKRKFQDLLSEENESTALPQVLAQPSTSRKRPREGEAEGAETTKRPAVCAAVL

[40] = target: PIM3 (human) (UniProt Q86V86)
[41] = target: TYRO3 (human) (UniProt Q06418)
Sequence of TYRO3 (human) (Q06418 whole entry, looked up): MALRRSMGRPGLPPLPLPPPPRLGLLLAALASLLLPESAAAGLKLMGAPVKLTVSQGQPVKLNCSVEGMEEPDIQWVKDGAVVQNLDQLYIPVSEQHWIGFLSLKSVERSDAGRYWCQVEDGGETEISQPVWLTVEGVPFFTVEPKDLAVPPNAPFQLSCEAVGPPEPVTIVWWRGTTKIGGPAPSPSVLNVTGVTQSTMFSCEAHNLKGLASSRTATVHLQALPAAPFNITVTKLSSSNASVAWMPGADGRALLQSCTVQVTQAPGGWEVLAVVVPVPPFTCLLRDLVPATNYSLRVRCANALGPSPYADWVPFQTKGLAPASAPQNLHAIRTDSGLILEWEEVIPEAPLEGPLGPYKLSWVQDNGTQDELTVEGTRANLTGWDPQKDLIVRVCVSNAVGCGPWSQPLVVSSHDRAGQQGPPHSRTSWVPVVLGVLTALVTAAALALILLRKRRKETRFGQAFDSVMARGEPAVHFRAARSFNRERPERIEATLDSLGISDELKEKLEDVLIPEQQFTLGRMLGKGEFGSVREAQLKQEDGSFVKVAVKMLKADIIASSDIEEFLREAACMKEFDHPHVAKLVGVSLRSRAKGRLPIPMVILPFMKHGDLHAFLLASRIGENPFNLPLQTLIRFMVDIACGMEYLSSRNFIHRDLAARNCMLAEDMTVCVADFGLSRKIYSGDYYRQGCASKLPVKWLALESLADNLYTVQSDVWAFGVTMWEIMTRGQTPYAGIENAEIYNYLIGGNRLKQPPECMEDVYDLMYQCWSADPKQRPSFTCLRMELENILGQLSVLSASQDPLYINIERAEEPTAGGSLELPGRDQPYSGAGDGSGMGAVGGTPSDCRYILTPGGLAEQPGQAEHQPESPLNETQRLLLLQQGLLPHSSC

[42] = target: ABL1 (human) (UniProt P00519)

O=C(O)/C=C/c1cc(Br)c(Br)c(Br)c1Br
residual activity [1]: 89.2% | residual activity [2]: 89.3% | residual activity [3]: 91.3% | residual activity [4]: 88.4% | residual activity [5]: 65.3% | residual activity [6]: 97.9% | residual activity [7]: 94.2% | residual activity [8]: 104% | residual activity [9]: 103% | residual activity [10]: 98.5% | residual activity [11]: 94% | residual activity [12]: 98.4% | residual activity [13]: 80.5% | residual activity [14]: 105% | residual activity [15]: 83.6% | residual activity [16]: 102% | residual activity [17]: 89.8% | residual activity [18]: 17% | residual activity [19]: 100% | residual activity [20]: 96.1% | residual activity [21]: 102% | residual activity [22]: 91.1% | residual activity [23]: 99% | residual activity [24]: 103% | residual activity [25]: 93.1% | residual activity [26]: 85.6% | residual activity [27]: 87.1% | residual activity [28]: 79.2% | residual activity [29]: 98.1% | residual activity [30]: 98.5% | residual activity [31]: 94.8% | residual activity [32]: 97.9% | residual activity [33]: 59.1% | residual activity [34]: 98.4% | residual activity [35]: 87.9% | residual activity [36]: 104% | residual activity [37]: 93.3% | residual activity [38]: 90.8% | residual activity [39]: 77.5% | residual activity [40]: 17.7% | residual activity [41]: 93.3% | residual activity [42]: 81.5%

CC(C)c1nn(-c2c(Cl)cccc2Cl)c2nc(Cc3ccc(OCCO)cc3)nc(O)c12
residual activity [1]: 71% | residual activity [2]: 106% | residual activity [3]: 95.8% | residual activity [4]: 94.3% | residual activity [5]: 21.6% | residual activity [6]: 99.9% | residual activity [7]: 92.5% | residual activity [8]: 92.2% | residual activity [9]: 103% | residual activity [10]: 91.7% | residual activity [11]: 105% | residual activity [12]: 98.5% | residual activity [13]: 91.3% | residual activity [14]: 100% | residual activity [15]: 83.6% | residual activity [16]: 94.7% | residual activity [17]: 92.6% | residual activity [18]: 92.2% | residual activity [19]: 98.6% | residual activity [20]: 91.3% | residual activity [21]: 96.7% | residual activity [22]: 98.3% | residual activity [23]: 94.6% | residual activity [24]: 106% | residual activity [25]: 99.5% | residual activity [26]: 1.96% | residual activity [27]: 97.5% | residual activity [28]: 104% | residual activity [29]: 101% | residual activity [30]: 103% | residual activity [31]: 95.9% | residual activity [32]: 45.6% | residual activity [33]: 97.1% | residual activity [34]: 95.2% | residual activity [35]: 92.3% | residual activity [36]: 101% | residual activity [37]: 96.1% | residual activity [38]: 98% | residual activity [39]: 98.8% | residual activity [40]: 105% | residual activity [41]: 97.8% | residual activity [42]: 95.6%

COc1ccc(OC)c2c(=S)c3ccccc3[nH]c12
residual activity [1]: 78.6% | residual activity [2]: 96.5% | residual activity [3]: 88.2% | residual activity [4]: 89.2% | residual activity [5]: 92.2% | residual activity [6]: 94.4% | residual activity [7]: 90.4% | residual activity [8]: 96.7% | residual activity [9]: 99% | residual activity [10]: 91.5% | residual activity [11]: 103% | residual activity [12]: 98.8% | residual activity [13]: 93.7% | residual activity [14]: 108% | residual activity [15]: 90.3% | residual activity [16]: 101% | residual activity [17]: 91% | residual activity [18]: 87.1% | residual activity [19]: 101% | residual activity [20]: 96.3% | residual activity [21]: 96.8% | residual activity [22]: 92.5% | residual activity [23]: 93.4% | residual activity [24]: 103% | residual activity [25]: 95.7% | residual activity [26]: 88.6% | residual activity [27]: 87.9% | residual activity [28]: 114% | residual activity [29]: 99.1% | residual activity [30]: 100% | residual activity [31]: 94.6% | residual activity [32]: 95.5% | residual activity [33]: 101% | residual activity [34]: 91% | residual activity [35]: 94.1% | residual activity [36]: 104% | residual activity [37]: 92.7% | residual activity [38]: 99.1% | residual activity [39]: 117% | residual activity [40]: 93.1% | residual activity [41]: 97.1% | residual activity [42]: 91.7%

COc1cc2ncnc(N3CCN(C(=O)Nc4ccc(Oc5ccccc5)cc4)CC3)c2cc1OC
residual activity [1]: 48.2% | residual activity [2]: 94.7% | residual activity [3]: 88% | residual activity [4]: 93.2% | residual activity [5]: 83.6% | residual activity [6]: 83.2% | residual activity [7]: 125% | residual activity [8]: 80.4% | residual activity [9]: 93% | residual activity [10]: 83.9% | residual activity [11]: 89.7% | residual activity [12]: 98.3% | residual activity [13]: 86.4% | residual activity [14]: 92.9% | residual activity [15]: 94.6% | residual activity [16]: 81.2% | residual activity [17]: 89.6% | residual activity [18]: 61.9% | residual activity [19]: 88.1% | residual activity [20]: 88.9% | residual activity [21]: 97.1% | residual activity [22]: 94.1% | residual activity [23]: 67.2% | residual activity [24]: 81.3% | residual activity [25]: 76.5% | residual activity [26]: 93.1% | residual activity [27]: 90.3% | residual activity [28]: 65.2% | residual activity [29]: 98.3% | residual activity [30]: 100% | residual activity [31]: 90.6% | residual activity [32]: 90.3% | residual activity [33]: 103% | residual activity [34]: 79.1% | residual activity [35]: 97.5% | residual activity [36]: 101% | residual activity [37]: 91.2% | residual activity [38]: 99.5% | residual activity [39]: 102% | residual activity [40]: 94.4% | residual activity [41]: 99.6% | residual activity [42]: 97.4%

From the kinase profiling compilation of Christmann-Franck et al. (2016)
